Data: patent US20240368214A1, “POSITIVE NMDA-MODULATING COMPOUNDS AND METHODS OF USE THEREOF” (SAGE THERAPEUTICS, INC., priority 2021, published 2024)
Where two headings read alike, the source gives them in different places.

Molecular target: T1, recombinant human GluN1/GluN2A receptor (Homo sapiens, UniProt Q05586+Q12879)
T1 construct: expressed in transfected cells; host or cells: HEK293, tetracycline-inducible expression
Assay: Whole-cell patch clamp of mammalian cells (Syncropatch 384i), NMDA modulation
Assay type: cell-based
Conditions: HEK293 cells, human GluN1/GluN2A, glutamate 1 μM / glycine 100 μM, -80 mV, peak amplitude increase; for EC50: read-out: EC50
Source text: Whole-Cell Patch Clamp of Mammalian Cells (Syncropatch 384i (Nanion Technologies))
Whole-cell patch clamp electrophysiology was used to investigate the effects of compounds on GluN1/GluN2A N-methyl-D-aspartate (NMDA) glutamate receptors expressed in mammalian cells.
Human embryonic kidney (HEK293) cells expressing the recombinant human GluN1/GluN2A receptor under the control of a tetracycline-inducible expression system were used. Cells were maintained in Dulbecco's Modified Eagle's Medium (DMEM) with 1% glutamine, 10% Tetracycline System Approved fetal bovine serum (FBS), and NMDA inhibitors. Cells were cultured in a humidified 5% CO2 incubator at 37° C. Cells were induced with 50 ng/ml tetracycline 18-24 hours prior to testing. A cocktail of channel blockers was added to the media to prevent cell death.
Cells were 60-80% confluent at the time of harvest. Cells were detached from the flask TrypLE Enzyme Express (Thermo Fisher) at 37° C., and then cold extracellular solution was added to the flask, followed by incubation at 4° C. and then trituration of the cells. The cell solution was then placed on a shaker on the Syncropatch platform at 10° C. with a shake speed of a minimum 200 rpm for at least 30 minutes prior to testing.
Extracellular (EC) solution (in mM) —140 NaCl, 4 KCl, 5 CaCl2, 10 HEPES, 5 Glucose, pH 7.4 with NaOH. All external solutions contained 0.2% DMSO and 0.01% Kolliphor® EL (C5135, Sigma) throughout the experiment.
Intracellular (IC) solution (in mM) —120 CsF, 10 mM EGTA, 10 NaCl, 10 HEPES, 4 NaATP, 2 MgCl2, pH 7.2 with CsOH.
First, the DMSO Master Plate was prepared, in which the DMSO stock of each test compound was serially diluted in 100% DMSO to 1000× the final assay concentration. Immediately prior to assay testing, the compounds were diluted 1:100 by transferring solutions from the DMSO Mast Plate to the Intermediate Plate pre-filled with EC solution using a Biomek FX automated liquid handling system. Compounds were then diluted further with extracellular solution into two pre-incubation plates—1) compound from the Intermediate Plate was mixed with EC solution at a 1:5 dilution to create a 2× Compound Pre-Incubation Plate which was diluted a further 1:2 when added to the Syncropatch for the initial compound pre-incubation. And 2) compound from the Intermediate plate was mixed with EC solution at a 1:10 Dilution to create the 1× Compound Pre-Incubation Plate, which was used for subsequent compound pre-incubations. Finally, a Compound+Agonist Plate was prepared by mixing compound from the 2× Compound Pre-Incubation Plate with 2× concentration of co-agonists in a 1:1 ratio.
Each experiment sequentially included cell catching, sealing, whole-cell formation, liquid application, recording and data acquisition. Whole-cell patch clamp recordings were performed using multi-hole high resistance chips on the SyncroPatch 384i (Nanion Technologies). A steady-state voltage pulse at -80 mV was applied throughout the assay and a 10 second recording window was triggered around 1 second prior to application of co-agonists. Currents were leak corrected and sampled at 5 kHz.
A fast application was used, in which 5 μl co-agonist was rapidly applied at a speed of 30 μl/s and then rapidly removed from the well. To test for modulator activity, the co-agonists glutamate (1 μM) and glycine (100 μM) were applied three times to show activation reproducibility, followed by 120 seconds pre-incubation of test compound alone. The test compound was then re-applied in the presence of co-agonists two times. This was followed by application of the agonist alone, although test compound may not be fully washed from the well prior to this step. Finally, a saturating concentration of co-agonists (glutamate 100 μM/glycine 100 μM) was applied.
The voltage protocol generation data collection and analysis were performed on PatchControll384 and DataControll384. […]

T1 sequence (Q12879 23-1464, other chains not shown): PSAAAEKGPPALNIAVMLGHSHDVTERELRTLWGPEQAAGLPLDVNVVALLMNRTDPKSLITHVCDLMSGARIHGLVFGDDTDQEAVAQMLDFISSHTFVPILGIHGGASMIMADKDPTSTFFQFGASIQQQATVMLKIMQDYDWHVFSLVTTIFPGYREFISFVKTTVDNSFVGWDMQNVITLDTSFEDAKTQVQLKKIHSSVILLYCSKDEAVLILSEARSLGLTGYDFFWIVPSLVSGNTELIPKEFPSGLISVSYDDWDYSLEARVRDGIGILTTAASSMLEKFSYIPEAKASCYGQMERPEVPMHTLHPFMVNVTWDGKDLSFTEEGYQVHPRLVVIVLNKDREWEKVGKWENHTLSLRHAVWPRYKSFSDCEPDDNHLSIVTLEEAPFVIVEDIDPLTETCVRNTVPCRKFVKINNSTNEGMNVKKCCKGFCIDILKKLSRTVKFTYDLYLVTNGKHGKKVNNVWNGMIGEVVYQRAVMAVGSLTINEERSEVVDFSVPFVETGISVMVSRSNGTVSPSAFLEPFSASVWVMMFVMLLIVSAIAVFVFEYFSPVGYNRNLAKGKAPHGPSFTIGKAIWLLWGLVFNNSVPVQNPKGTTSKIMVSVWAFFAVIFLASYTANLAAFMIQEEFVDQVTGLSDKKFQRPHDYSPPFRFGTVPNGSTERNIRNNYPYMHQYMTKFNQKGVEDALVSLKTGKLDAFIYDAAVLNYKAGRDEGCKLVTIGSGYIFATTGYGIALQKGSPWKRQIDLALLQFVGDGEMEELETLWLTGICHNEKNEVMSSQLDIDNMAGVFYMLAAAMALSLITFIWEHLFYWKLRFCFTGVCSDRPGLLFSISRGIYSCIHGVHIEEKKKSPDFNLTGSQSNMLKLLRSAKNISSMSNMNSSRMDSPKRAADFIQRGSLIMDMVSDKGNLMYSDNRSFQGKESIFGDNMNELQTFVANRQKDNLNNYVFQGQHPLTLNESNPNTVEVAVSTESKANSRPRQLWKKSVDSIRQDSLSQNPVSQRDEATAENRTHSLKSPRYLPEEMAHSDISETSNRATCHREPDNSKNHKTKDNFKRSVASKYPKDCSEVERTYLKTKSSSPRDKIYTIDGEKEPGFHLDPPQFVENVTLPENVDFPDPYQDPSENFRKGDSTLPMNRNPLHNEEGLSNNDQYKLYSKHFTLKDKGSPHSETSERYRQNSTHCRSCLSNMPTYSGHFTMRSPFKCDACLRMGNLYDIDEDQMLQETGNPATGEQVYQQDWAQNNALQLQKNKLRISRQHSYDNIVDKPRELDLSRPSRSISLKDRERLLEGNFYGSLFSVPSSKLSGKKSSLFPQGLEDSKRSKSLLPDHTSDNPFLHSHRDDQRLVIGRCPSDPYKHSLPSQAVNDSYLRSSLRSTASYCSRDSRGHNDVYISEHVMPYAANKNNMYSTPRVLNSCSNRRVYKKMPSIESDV

In the case of CC[C@]1(O)CC[C@@]2(C)[C@@H](CC[C@@H]3[C@@H]2CC[C@]2(C)[C@@H]([C@@H](CCCC(C)(C)O)OC)CC[C@@H]32)C1 [Compound A-10, (3S,5S,8R,9S,10S,13S,14S,17S)-3-ethyl-17-((R)-5-hydroxy-1-methoxy-5-methylhexyl)-10,13-dimethylhexadecahydro-1H-cyclopenta[a]phenanthren-3-ol], the Emax (Table A-2) is reported as 100 to 200% and the EC50 (Table A-2) is reported as 100 to 500 nM.

CC[C@]1(O)CC[C@@]2(C)[C@@H](CC[C@H]3[C@@H]4[C@@H](C5CC5)C[C@H]([C@H](C)CCCC(C)(C)O)[C@@]4(C)CC[C@@H]32)C1 [Compound B-19, (3S,5S,8R,9S,10S,13R,14S,15R,17R)-15-cyclopropyl-3-ethyl-17-((R)-6-hydroxy-6-methylheptan-2-yl)-10,13-dimethylhexadecahydro-1H-cyclopenta[a]phenanthren-3-ol] showed an Emax (Table B-2) of 100 to 200% and an EC50 (Table B-2) of 100 to 500 nM.

With CC[C@]1(O)CC[C@@]2(C)[C@@H](CC[C@@H]3[C@@H]2CC[C@]2(C)[C@@H](C(C#N)CCCC(C)(C)O)CC[C@@H]32)C1 (stereo partly drawn) [Compound A-8, 2-((3S,5S,8R,9S,10S,13S,14S,17R)-3-ethyl-3-hydroxy-10,13-dimethylhexadecahydro-1H-cyclopenta[a]phenanthren-17-yl)-6-hydroxy-6-methylheptanenitrile] the Emax (Table A-2) was 100 to 200% and the EC50 (Table A-2) was 1 to 100 nM.

CC[C@@]1(O)CCC[C@@]2(C)C(=CC[C@H]3[C@@H]4CC[C@H]([C@H](C)CC[C@](C)(O)C(F)(F)F)[C@@]4(C)CC[C@@H]32)C1 [Compound D-16, (1R,3aS,3bS,7R,10aR,10bS,12aR)-7-ethyl-10a,12a-dimethyl-1-((2R,5S)-6,6,6-trifluoro-5-hydroxy-5-methylhexan-2-yl)-1,2,3,3a,3b,4,6,7,8,9,10,10a,10b,11,12,12a-hexadecahydrocyclohepta[a]cyclopenta[f]naphthalen-7-ol] was tested, and the Emax (Table D-2) was under 100% and the EC50 (Table D-2) was over 1000 nM.

CC[C@@H](CCCC(C)(C)O)[C@H]1CC[C@H]2[C@@H]3CC[C@H]4C[C@](O)(CC)CC[C@]4(C)[C@H]3CC[C@]12C [Compound A-20, (3S,5S,8R,9S,10S,13R,14S,17R)-3-ethyl-17-((S)-7-hydroxy-7-methyloctan-3-yl)-10,13-dimethylhexadecahydro-1H-cyclopenta[a]phenanthren-3-ol] gave an EC50 (Table A-2) of over 1000 nM.

For CC[C@]1(O)CCC[C@@]2(C)[C@@H](CC[C@@H]3[C@@H]2CC[C@]2(C)[C@@H]([C@H](C)CC[C@](C)(O)C(F)(F)F)CC[C@@H]32)C1 [Compound D-7, (1R,3aS,3bR,5aS,7S,10aS,10bS,12aR)-7-ethyl-10a,12a-dimethyl-1-((2R,5S)-6,6,6-trifluoro-5-hydroxy-5-methylhexan-2-yl)octadecahydrocyclohepta[a]cyclopenta[f]naphthalen-7-ol], the Emax (Table D-2) was 100 to 200% and the EC50 (Table D-2) was 1 to 100 nM.

In the case of C[C@H](CC[C@H](O)C1(C#N)CC1)[C@H]1CC[C@H]2[C@@H]3CC[C@H]4C[C@@](C)(O)CC[C@]4(C)C3=CC[C@]12C [Compound C-33, 1-((1S,4R)-1-hydroxy-4-((3S,5S,8S,10S,13R,14S,17R)-3-hydroxy-3,10,13-trimethyl-2,3,4,5,6,7,8,10,12,13,14,15,16,17-tetradecahydro-1H-cyclopenta[a]phenanthren-17-yl)pentyl)cyclopropane-1-carbonitrile], the EC50 (Table C-2) is reported as 100 to 500 nM and the EC50 (Table E-2) is reported as 100 to 500 nM.

For CCO[C@H](CC[C@H](O)C(C)C)[C@H]1CC[C@H]2[C@@H]3CC[C@@H]4C[C@](O)(CC)CC[C@]4(C)[C@H]3CC[C@]12C [Compound A-11a, (3S,5R,8R,9S,10S,13S,14S,17S)-17-((1R,4S)-1-ethoxy-4-hydroxy-5-methylhexyl)-3-ethyl-10,13-dimethylhexadecahydro-1H-cyclopenta[a]phenanthren-3-ol], the Emax (Table A-2) was under 100% and the EC50 (Table A-2) was over 1000 nM.

CC[C@]1(O)CC[C@@]2(C)[C@@H](CC[C@@H]3[C@@H]2CC[C@@]2(C)[C@H]3C[C@H]3C[C@]32[C@H](C)CCCC(C)(C)O)C1 [Compound B-8, (2aS,4S,6aS,6bS,8aS,8bS,9aS,10aS,10bR)-4-ethyl-8b-((R)-6-hydroxy-6-methylheptan-2-yl)-6a,8a-dimethyloctadecahydrocyclopropa[3,4]cyclopenta[1,2-a]phenanthren-4-ol] was tested, and the Emax (Table B-2) was 100 to 200% and the EC50 (Table B-2) was over 1000 nM.

Work on COC[C@]1(O)CC[C@@]2(C)[C@@H](CC[C@@H]3[C@@H]2CC[C@]2(C)[C@@H]([C@H](C)CC[C@@H](O)C(C)(C)C#N)CC[C@@H]32)C1 [Compound C-9, (3R,6R)-3-hydroxy-6-((3S,5S,8R,9S,10S,13R,14S,17R)-3-hydroxy-3-(methoxymethyl)-10,13-dimethylhexadecahydro-1H-cyclopenta[a]phenanthren-17-yl)-2,2-dimethylheptanenitrile] yielded an Emax (Table C-2) of under 100% and an EC50 (Table C-2) of 1 to 100 nM.

In the case of CC[C@]1(O)CCC[C@@]2(C)[C@@H](CC[C@@H]3[C@@H]2CC[C@]2(C)[C@@H]([C@H](C)CC[C@@](C)(O)C(F)(F)F)CC[C@@H]32)C1 [Compound D-5, (1R,3aS,3bR,5aS,7S,10aS,10bS,12aR)-7-ethyl-10a,12a-dimethyl-1-((2R,5R)-6,6,6-trifluoro-5-hydroxy-5-methylhexan-2-yl)octadecahydrocyclohepta[a]cyclopenta[f]naphthalen-7-ol], the Emax (Table D-2) is reported as under 100% and the EC50 (Table D-2) is reported as 100 to 500 nM.

For C[C@H](CC[C@@](C)(O)C(F)(F)F)[C@H]1CCC[C@H]2[C@@H]3CC=C4C[C@@](C)(O)CC[C@]4(C)[C@H]3CC[C@]12C [Compound H-11, (2S,4aR,4bS,6aR,7R,10aS,10bS)-2,4a,6a-trimethyl-7-((2R,5R)-6,6,6-trifluoro-5-hydroxy-5-methylhexan-2-yl)-1,2,3,4,4a,4b,5,6,6a,7,8,9,10,10a,10b,11-hexadecahydrochrysen-2-ol], the EC50 (Table H-2) was 100 to 500 nM.

CC[C@]1(O)CC[C@@]2(C)C(=CC[C@H]3[C@@H]4CCC[C@H]([C@H](C)CC[C@](C)(O)C(F)(F)F)[C@@]4(C)CC[C@@H]32)C1 [Compound H-9, (2S,4aR,4bS,6aR,7R,10aS,10bS)-2-ethyl-4a,6a-dimethyl-7-((2R,5S)-6,6,6-trifluoro-5-hydroxy-5-methylhexan-2-yl)-1,2,3,4,4a,4b,5,6,6a,7,8,9,10,10a,10b,11-hexadecahydrochrysen-2-ol] was tested, and the EC50 (Table H-2) was 100 to 500 nM.
